The source of these data is ChEMBL document CHEMBL2169839 (J Med Chem, 2012).

Each structure is given as a SMILES string. Numbering of substitutions follows the chain as printed.

The target of test [1] is T1, Aldo-keto reductase family 1 member C4 (Homo sapiens, UniProt P17516).
T1 sequence (P17516 whole entry): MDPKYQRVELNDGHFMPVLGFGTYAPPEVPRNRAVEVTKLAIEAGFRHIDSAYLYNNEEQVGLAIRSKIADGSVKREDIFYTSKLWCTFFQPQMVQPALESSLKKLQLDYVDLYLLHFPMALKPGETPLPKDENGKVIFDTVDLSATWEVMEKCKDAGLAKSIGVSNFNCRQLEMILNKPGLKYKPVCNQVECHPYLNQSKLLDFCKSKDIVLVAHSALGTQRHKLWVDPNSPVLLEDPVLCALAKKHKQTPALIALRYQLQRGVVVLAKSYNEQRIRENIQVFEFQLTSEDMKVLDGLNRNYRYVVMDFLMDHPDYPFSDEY

The target in test [2] is T2, Aldo-keto reductase family 1 member C3 (Homo sapiens, UniProt P42330).
T2 sequence (P42330 whole entry): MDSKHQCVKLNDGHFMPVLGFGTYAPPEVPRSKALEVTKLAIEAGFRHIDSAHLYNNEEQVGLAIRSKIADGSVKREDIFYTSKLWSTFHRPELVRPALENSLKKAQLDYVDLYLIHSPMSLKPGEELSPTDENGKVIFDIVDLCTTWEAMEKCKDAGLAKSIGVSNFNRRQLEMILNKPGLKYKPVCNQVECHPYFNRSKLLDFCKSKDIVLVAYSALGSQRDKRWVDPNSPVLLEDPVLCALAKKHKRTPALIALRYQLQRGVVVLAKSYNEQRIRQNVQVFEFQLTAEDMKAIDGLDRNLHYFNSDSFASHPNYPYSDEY
The experiment in a line: biochemical.
Description: Inhibition of human recombinant N-terminal His6-tagged AKR1C3 expressed in Escherichia coli BL21(DE3) cells using 8-Acetyl-2,3,5,6-tetrahydro-1H,4H-11-oxa-3a-aza-benzo[de]anthracen-10-one as substrate after 1 hr by fluorimetric analysis

The target in test [3] is T2, Aldo-keto reductase family 1 member C3. Briefly: Inhibition of AKR1C3 overexpressed in human HCT116 cells assessed as inhibition of PR-104A conversion to hydroxylamine after 2 hrs by LC-MS/MS analysis.
For test [4], the target named is T3, Aldo-keto reductase family 1 member C2 (Homo sapiens, UniProt P52895).
T3 sequence (P52895 whole entry): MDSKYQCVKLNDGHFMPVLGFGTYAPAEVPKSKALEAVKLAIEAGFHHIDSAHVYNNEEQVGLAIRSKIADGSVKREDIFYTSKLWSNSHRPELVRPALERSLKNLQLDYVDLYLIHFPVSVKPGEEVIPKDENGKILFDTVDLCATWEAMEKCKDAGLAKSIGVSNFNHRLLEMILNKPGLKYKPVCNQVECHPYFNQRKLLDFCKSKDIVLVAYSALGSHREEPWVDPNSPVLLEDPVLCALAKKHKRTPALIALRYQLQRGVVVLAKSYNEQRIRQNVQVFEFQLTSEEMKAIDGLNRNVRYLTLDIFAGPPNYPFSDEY

The target of test [5] is T4, Aldo-keto reductase family 1 member C1 (Homo sapiens, UniProt Q04828).
T4 sequence (Q04828 whole entry): T3 sequence (P52895 whole entry) with V38T, H47R, V54L, S87C, M151V, H170R, L172Q

Broadly, the IC50 is the concentration at which inhibition is half-maximal. As for `COc1cc2c(cc1OC)CN(S(=O)(=O)c1cccc(C(=O)O)c1)CC2`, the IC50 in test [1] is above 30 µM; in test [2] it was 0.16 µM; in test [3], above 1 µM; in test [4], above 30 µM; in test [5], above 30 µM.
As for `O=C(O)c1cccc(S(=O)(=O)N2CCc3cc([N+](=O)[O-])ccc3C2)c1`, the IC50 was above 30 µM in test [1]; 0.022 µM in test [2]; above 1 µM in test [3]; above 30 µM in test [4]; above 30 µM in test [5].
For the molecule `Cc1ccc2c(c1)CN(S(=O)(=O)c1cccc(C(=O)O)c1)CC2`, the IC50 in test [1] is above 30 µM; in test [2], 0.013 µM; in test [3], 0.029 µM; in test [4], above 30 µM; in test [5], above 30 µM.
For the molecule `O=C(O)c1cccc(S(=O)(=O)N2CCc3ccccc32)c1`, the IC50 is above 30 µM in test [1]; 0.21 µM in test [2]; above 1 µM in test [3]; above 30 µM in test [4]; 6.61 µM in test [5].
As for `O=S(=O)(c1cccc(-c2nnn[nH]2)c1)N1CCc2ccccc2C1`, the IC50 in test [1] was above 30 µM; in test [2] it was 0.0095 µM; in test [3], 0.897 µM; in test [4], above 30 µM; in test [5], above 30 µM.
Turning to `O=C(O)c1cccc(S(=O)(=O)N2Cc3ccccc3C2)c1`, the IC50 in test [1] was above 30 µM; in test [2] it was 0.047 µM; in test [3], 0.884 µM; in test [4], above 30 µM; in test [5] it was 3.89 µM.
For `Cc1ccc2c(c1)CCN(S(=O)(=O)c1cccc(C(=O)O)c1)C2`, the IC50 was above 30 µM in test [1]; 0.017 µM in test [2]; 0.052 µM in test [3]; above 30 µM in test [4]; above 30 µM in test [5].
For the molecule `O=C(O)c1cccc(S(=O)(=O)N2CCc3sccc3C2)c1`, the IC50 was above 30 µM in test [1]; 0.025 µM in test [2]; 0.034 µM in test [3]; above 30 µM in test [4]; above 30 µM in test [5].
With `O=C(O)c1cccc(S(=O)(=O)N2CCc3ccc([N+](=O)[O-])cc3C2)c1`, the IC50 in test [1] was above 30 µM; in test [2], 0.017 µM; in test [3], 0.072 µM; in test [4], above 30 µM; in test [5] it was above 30 µM.
In the case of `O=C(O)c1cccc(S(=O)(=O)N2CCc3ccccc3C2)c1`, the 50% inhibitory concentration (IC50) in test [1] was above 30 µM; in test [2] it was 0.013 µM; in test [3] it was 0.027 µM; in test [4], above 30 µM; in test [5], 20.3 µM.
Take `O=C(O)c1cccc(S(=O)(=O)N2CC=CCC2)c1`: the IC50 in test [1] was above 30 µM; in test [2] it was 0.39 µM; in test [3], above 1 µM; in test [4] it was above 30 µM; in test [5], above 30 µM.
As for `O=C(O)c1cn(S(=O)(=O)c2ccc(Br)cc2)c2ccccc12`, the IC50 was above 30 µM in test [1]; 0.068 µM in test [2]; 0.407 µM in test [3]; above 30 µM in test [4]; 0.83 µM in test [5].
In the case of `O=C(O)c1cccc(S(=O)(=O)N2CCc3ccc(Br)cc3C2)c1`, the half-maximal inhibitory concentration (IC50) in test [1] was above 30 µM; in test [2], 0.012 µM; in test [3], 0.02 µM; in test [4] it was above 30 µM; in test [5], above 30 µM.
As for `O=C(O)C(=O)Nc1cccc(S(=O)(=O)N2CCc3ccccc3C2)c1`, the IC50 in test [1] was above 30 µM; in test [2], 0.062 µM; in test [3] it was above 1 µM; in test [4] it was above 30 µM; in test [5], above 30 µM.
Consider `COc1ccc2c(c1)CCN(S(=O)(=O)c1cccc(C(=O)O)c1)C2`, for which the IC50 in test [1] was above 30 µM; in test [2], 0.038 µM; in test [3] it was 0.39 µM; in test [4], above 30 µM; in test [5], above 30 µM.
In the case of `O=C(O)c1cccc(S(=O)(=O)NCCc2ccccc2)c1`, the IC50 is above 30 µM in test [1]; 0.22 µM in test [2]; above 1 µM in test [3]; above 30 µM in test [4]; above 30 µM in test [5].
For `O=C(O)[C@H]1CCCN(S(=O)(=O)c2ccc3ccccc3c2)C1`, the IC50 in test [1] was above 3 µM; in test [2], 0.4 µM; in test [3], above 1 µM; in test [4], above 3 µM; in test [5], above 30 µM.
As to `O=C(c1cccc(S(=O)(=O)N2CCc3ccccc3C2)c1)N1CCOCC1`, the IC50 was above 30 µM in test [1]; 0.078 µM in test [2]; 0.013 µM in test [3]; above 30 µM in test [4]; above 30 µM in test [5].
Take `O=C(O)c1cccc(S(=O)(=O)N2CCc3cc(Cl)ccc3C2)c1`: the IC50 in test [1] is above 30 µM; in test [2] it was 0.0087 µM; in test [3], 0.039 µM; in test [4], above 30 µM; in test [5], 7.48 µM.
As for `O=C(O)c1cccc(S(=O)(=O)NCCc2ccc(Cl)cc2)c1`, the half-maximal inhibitory concentration (IC50) is above 30 µM in test [1]; 0.14 µM in test [2]; above 1 µM in test [3]; above 30 µM in test [4]; above 30 µM in test [5].
In the case of `O=C(O)c1cccc(S(=O)(=O)N2CCCc3ccccc32)c1`, the IC50 was above 30 µM in test [1]; 0.2 µM in test [2]; above 1 µM in test [3]; above 30 µM in test [4]; above 30 µM in test [5].
On to `O=C1CCCN1c1ccc(S(=O)(=O)N2CCc3ccccc3C2)cc1`, for which the IC50 in test [1] was above 30 µM; in test [2], 0.042 µM; in test [3] it was 0.024 µM; in test [4], above 30 µM; in test [5], above 30 µM.
Take `O=C(O)c1ccc(S(=O)(=O)N2CCc3ccccc3C2)cc1`: the IC50 in test [1] is above 30 µM; in test [2], 1.24 µM; in test [3], above 1 µM; in test [4] it was above 30 µM; in test [5] it was above 30 µM.
On to `CC1c2ccccc2CCN1S(=O)(=O)c1cccc(C(=O)O)c1` (stereo not given), for which the IC50 is above 30 µM in test [1]; 0.027 µM in test [2]; 0.024 µM in test [3]; above 30 µM in test [4]; above 30 µM in test [5].
As for `O=C(O)c1cccc(S(=O)(=O)N2CCc3cc(Br)ccc3C2)c1`, the IC50 in test [1] is above 30 µM; in test [2] it was 0.0061 µM; in test [3], 0.012 µM; in test [4], above 30 µM; in test [5], above 30 µM.
As for `N#Cc1ccc2c(c1)CN(S(=O)(=O)c1cccc(C(=O)O)c1)CC2`, the IC50 in test [1] was above 30 µM; in test [2], 0.034 µM; in test [3], 0.266 µM; in test [4], above 30 µM; in test [5], above 30 µM.
Consider `O=C(O)c1cccc(S(=O)(=O)N2CCc3ccc(I)cc3C2)c1`, for which the IC50 was above 30 µM in test [1]; 0.014 µM in test [2]; 0.045 µM in test [3]; above 30 µM in test [4]; above 30 µM in test [5].
With `O=C(O)c1cccc(S(=O)(=O)N2CCc3c(Br)cccc3C2)c1`, the concentration for half-maximal inhibition (IC50) in test [1] was above 30 µM; in test [2], 0.011 µM; in test [3], 0.014 µM; in test [4], above 30 µM; in test [5], above 30 µM.
Take `O=C(O)c1cccc(S(=O)(=O)N2CCc3ccc(F)cc3C2)c1`: the IC50 in test [1] is above 30 µM; in test [2], 0.021 µM; in test [3], 0.024 µM; in test [4] it was above 30 µM; in test [5] it was above 30 µM.
As for `O=C(O)c1cccc(S(=O)(=O)N2CCc3c(Cl)cccc3C2)c1`, the 50% inhibitory concentration (IC50) in test [1] is above 30 µM; in test [2], 0.011 µM; in test [3], 0.016 µM; in test [4], 9.32 µM; in test [5], above 30 µM.
Take `O=C(O)c1cccc(S(=O)(=O)NCCc2cccc(Cl)c2)c1`: the IC50 in test [1] was above 30 µM; in test [2], 0.21 µM; in test [3], above 1 µM; in test [4], above 30 µM; in test [5], above 30 µM.
